Source: patent publication US5032398A, “Selective modification of the catalytic subunit of pertussis toxin” (priority 1986, dated 1991)
Values joined by “and” are separate entries in the source; they are usually repeats but may differ in a detail not shown here. Equal values may be shown once. Read-outs that look alike come from different tables or passages of the source.

Experiments:
pertussis toxin [1] = target: T1, pertussis toxin (Bordetella pertussis, UniProt P04977); assay: Inactivation of NADase activity by iodoacetate after different activator combinations (Example Seven); format: biochemical; conditions: additions to first incubation only (DTT 1 mM, ATP 1 mM, CHAPS 1%), second incubation none
T1 sequence (P04977 35-269 limits assumed): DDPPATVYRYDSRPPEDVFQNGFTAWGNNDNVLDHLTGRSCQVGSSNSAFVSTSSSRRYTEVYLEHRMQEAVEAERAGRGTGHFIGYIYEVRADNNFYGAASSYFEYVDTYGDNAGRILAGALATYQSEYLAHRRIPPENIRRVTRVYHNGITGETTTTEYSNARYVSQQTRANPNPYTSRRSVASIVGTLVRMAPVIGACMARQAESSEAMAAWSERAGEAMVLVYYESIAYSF
Procedure: (§1) Pertussis toxin was incubated first at 37° C. for fifteen minutes in […] buffer A (100 mM Tris-HCl, pH 8.0 with 1 mM NaEDTA). EDTA was added to chelate divalent cations, which may promote oxidation of free --SH groups. During this incubation, DTT and ATP were present in concentrations of 1 mM each, and CHAPS was present in a concentration of 1 weight percent. Labelled iodoacetate was then added ([…], 12.5 mM), and the tube incubated on ice for twenty hours. The sample was then mixed with sodium dodecylsulfate and β-mercaptoethanol, heated at 95° C. for one minute, and electrophoresed. After electrophoresis, the gel was fixed, treated with Fluorohance (Research Products International), dried and used to expose x-ray film.
(§2) Pertussis toxin was incubated at 37° C. for fifteen minutes as described in Example Six, and then a second incubation was begun by adding 10 μl buffer A with or without 12.5 mM iodoacetate, mixing the contents of the tube and lowering the temperature to 30° C. After fifteen minutes, the tubes were shifted to an ice bath for ten minutes. A third incubation was then begun by adding 10 μl buffer A containing 200 mM DTT to those tubes containing iodoacetate to scavenge the iodoacetate. To those tubes not containing iodoacetate during the second incubation, a mixture of 200 mM DTT and 12.5 mM iodoacetate in buffer A, previously incubated for an hour on ice, was added. The third incubation was continued for one hour on ice.
(§3) The contents of each tube were then assayed for NADase activity by adding 40 μl of a reaction mix consisting of buffer A containing carbon-14 labelled NAD (final concentration in the 100 μl final volume was 25 μM), and 50 mM sodium chloride. Different reaction mixtures with various additions were used, so that in all tubes the final concentration of ATP was 1 mM and CHAPS was 1 weight percent. The assay was conducted at 37° C. for sixty minutes, and the released labelled nicotinimide was isolated and counted. The iced controls were formed by incubating pertussis toxin (1 μg) on ice in 10 mM sodium phosphate (pH 7) and 50 mM sodium chloride during the first three incubations. […] The first three incubations were done under a nitrogen atmosphere using degassed conditions, and the second and third incubations were done under subdued light.

pertussis toxin [2] = target: T1, pertussis toxin; assay: Inactivation of NADase activity by sulfhydryl reagents, 6 minutes or 18 hours at 0-4° (Example Eight); format: biochemical
Procedure: as §2, §3
The procedure followed in Example Seven was repeated for this study, except that N-ethylmaleimide, chloroacetamide or chloroacetate were substituted for iodoacetate. After the 30° C. incubation, the tubes were either incubated for six minutes or eighteen hours at 0°-4° C. before the 10 μl of 200 mM DTT (with or without quenched reagent) was added. Those tubes receiving the DTT after six minutes were incubated for nineteen hours at 0°-4° C. prior to the NADase assay. Those receiving the DTT after eighteen hours were incubated with DTT for one hour, as in Example Seven. The tubes were then assayed for NADase activity at the same time.

[3] = tested on: S1 -S5 subunits of the toxin; assay: Labelled iodoacetate incorporation into toxin subunits, electrophoresis and x-ray film (Examples Two and Six); parameters: species or system Bordetella pertussis; conditions: CHAPS added, compared with DTT and ATP or DTT alone
Chain of S1 -S5 subunits of the toxin (P04977 35-269 limits assumed): as above
Chain of S1 -S5 subunits of the toxin (P04978 28-226 limits assumed, further chain): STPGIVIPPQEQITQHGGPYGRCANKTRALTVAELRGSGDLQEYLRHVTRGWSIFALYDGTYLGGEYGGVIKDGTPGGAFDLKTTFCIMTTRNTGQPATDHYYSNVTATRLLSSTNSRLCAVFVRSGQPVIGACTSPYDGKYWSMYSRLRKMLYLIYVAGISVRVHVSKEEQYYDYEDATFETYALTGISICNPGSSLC
Chain of S1 -S5 subunits of the toxin (P04979 29-227 limits assumed, further chain): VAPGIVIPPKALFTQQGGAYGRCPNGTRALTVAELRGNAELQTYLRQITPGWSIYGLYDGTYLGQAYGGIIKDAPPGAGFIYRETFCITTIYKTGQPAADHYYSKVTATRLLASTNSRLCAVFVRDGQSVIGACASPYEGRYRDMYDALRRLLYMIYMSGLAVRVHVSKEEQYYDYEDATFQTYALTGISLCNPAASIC
Chain of S1 -S5 subunits of the toxin (P0A3R5 43-152 limits assumed, further chain): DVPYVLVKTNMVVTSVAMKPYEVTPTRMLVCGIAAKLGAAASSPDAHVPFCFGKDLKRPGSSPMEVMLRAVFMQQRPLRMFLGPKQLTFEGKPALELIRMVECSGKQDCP
Chain of S1 -S5 subunits of the toxin (P04981 35-133 limits assumed, further chain): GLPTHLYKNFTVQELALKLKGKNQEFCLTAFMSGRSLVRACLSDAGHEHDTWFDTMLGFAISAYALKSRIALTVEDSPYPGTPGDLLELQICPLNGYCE
Procedure: Pertussis toxin (2.5 μg) was incubated for thirty minutes at 37° C. in 50 μl of 50 mM Tris-HCl (pH 8.0) with or without combinations of the activators ATP, CHAPS and DTT. During this incubation, ATP was 1 mM, CHAPS was 1 weight percent, and DTT was 0.5 mM, when present. Following this incubation, 75 nmol (1.34 microCi of iodo[^14 C]acetate and 25 μl of water were then added, and the tubes incubated for an additional thirty minutes under nitrogen gas at 30° C. in the dark. This labelling reaction was terminated by adding 1 ml of ice-cold water containing 7.5 mM non-radioactive iodoacetate, 2.5 μg bovine serum albumin, and 150 μg sodium deoxycholate. After ten minutes on ice, 100 μl 72% triochloroacetic acid was added, and the precipitate recovered by centrifugation. Sodium dodecylsulfate and beta-mercaptoethanol were added, the sample heated to 95° C. for one minute, and then electrophoresed using 15% polyacrylamide gels. The fixed gels were then treated, dried and used to expose x-ray film at -70° C.
as §1

pertussis toxin [4] = target: T1, pertussis toxin; assay: Effect of detergents on the NADase activity of pertussis toxin (Example Four); format: biochemical; conditions: 1 mM ATP, 10 mM DTT; for Fractional Activity with CHAPS: detergent 1 weight percent plus CHAPS 1%; for Fractional Activity with CHAPS / Fractional Activity without CHAPS: relative to 1% CHAPS alone; for Fractional Activity without CHAPS: detergent 1 weight percent
Procedure: (§4) The pertussis toxin in the Examples comprised 50 μg of the toxin in a 500 μl solution of 10 mM sodium phosphate-50 mM sodium chloride-water solution having a pH of 7. The enzymatic activity was detected as the hydrolysis of nicotinamide labelled NAD and ion-exchange column chromatography to resolve the product from the substrate. Unless otherwise noted, the assay was initiated by adding 0.5 to 2.5 μg of the toxin to a reaction mixture for a final volume of 100 μl. The NADase reaction was terminated by adding 0.85 ml of ice-cold water. The entire 0.95 ml was then pipetted into a QAE-Sephadex column (chloride form) and the labelled nicotinamide eluted with 3 ml of water directly into a scintillation vial and counted. […] One unit of NADase activity is defined as 1 pmol NAD hydrolyzed per hour.
The effect of detergents on the NADase activity of pertussis toxin was measured in the presence of various detergents at a concentration of 1 weight percent in either the absence or presence of the detergent CHAPS (1 percent by weight). ATP was present in all assays in a concentration of 1 mM, and DTT concentration was 10 mM. Fractional activity is shown in Table III and is defined as activity divided by activity in the presence of 1% CHAPS. The value given is the average for two separate trials, and in each trial duplicates were measured for each condition.

pertussis toxin [5] = target: T1, pertussis toxin; assay: NADase activity in the presence of sulfhydryl reducing agents (Example Five); format: biochemical
Procedure: In the description herein, activation constants for the substances may be expressed by a numerical value (A0.5) by using an NADase assay.
as §4
Pertussis toxin NADase activity was assayed in the presence of various sulfhydryl reducing agents at various concentrations. The assay buffer contained 1% CHAPS and 1 mM ATP.

pertussis toxin [6] = target: T1, pertussis toxin; assay: NADase activity of pertussis toxin after activation and treatment with alkylating reagent (Example One); format: biochemical
Description: The ADP-ribosylating activity of the pertussis toxin can be detected as a nicotinamide-adenine dinucleotide-glycohydrolase (NADase) activity, which can be conveniently assayed through the use of [nicotinamide-^14 C] or [nicotinamide-^3 H] NAD. NAD consists of ADP-ribose linked to nicotinimide, and thus the extent of the release of ADP-ribose from NAD is an indication of the ability of the toxin to cause ill effects. In conducting this assay of the hydrolysis of labelled NAD, ion-exchange column chromatography was employed to resolve the product from the substrate according to the method described by Moss et al., J. Biol. Chem. 258, 11879 (1983) which is incorporated herein by reference. However, several modifications to this method were employed. First, a QAE-Sephadex resin was employed, as was a [nicotinamide-^3 H] NAD. Specifically, a 2 ml QAE-Sephadex column was first washed with 10 ml 1NHCl, followed by 10 ml H2 O, 20 ml 0.5M Tris-HCl pH 7.0, and 40 ml H2 O. [^3 H] NAD was applied, and the column washed with 20 ml water to elute impurities. Purified [^3 H] NAD was eluted with 0.25M NaCl, and stored in small aliquots at -70° C. The purified [^3 H] NAD contributed 50 mM NaCl (final concentration) to the NADase assays.
Before the end of the reaction, 2 ml QAE-Sephadex columns were treated with 10 ml 0.1M imidazole-HCl pH 7.0 with 1.0M NaCl, followed by 40 ml water. The NADase reaction (in 100 μl) was terminated by adding 0.85 ml of ice-cold water, and the entire 0.95 ml was pipetted into a treated QAE column. The labelled nicotinamide was then eluted with 3 ml of water directly into a scintillation vial and counted. The absorbed labelled NAD was then eluted into radioactive waste with 10 ml 0.1M imidazole-HCl pH 7.0 with 1.0M NaCl, and the column stored partially immersed in a water bath until the next assay.
In order to determine if any active toxin remained after the inactivation, a large excess of sulfhydryl reductant was added to each tube to scavenge unreacted sulfhydryl reagent. The NADase activity of the preparation was then measured. The three incubations were performed under a nitrogen atmosphere using degassed solutions to prevent oxidation of sulfhydryl groups which would prevent the sulfhydryl reagent from modifying the sulfhydryl group.
as §4
One-half microgram of pertussis toxin was incubated for thirty minutes at […] in 100 mM Tris-HCl (pH 8.0), with or without activators, in a volume of 50 μl. When present, ATP and pyrophosphate were present in a concentration of 2 mM, CHAPS at 2 weight percent, and DTT in a concentration of either 2 mM (trial 1) or 1 mM (trial 2). 10 μl of water with or without iodoacetate or N-ethylmaleimide was then added and a second incubation conducted at 30° C. for either thirty minutes (trial 1) or fifteen minutes (trial 2). After this incubation, 10 μl of 200 mM DTT was added to each tube, and the tubes were incubated for thirty (trial 1) or sixty minutes (trial 2) on ice to scavenge the iodoacetate or N-ethylmaleimide.

pertussis toxin [7] = target: T1, pertussis toxin; assay: NADase activity in the presence of sulfhydryl reducing agents (Example Five); format: biochemical; conditions: 10 mM DTT without ATP
[8] = first incubation: ATP, DTT, CHAPS, 6 minutes at 0-4°
[9] = first incubation: ATP, DTT, CHAPS, 18 hours at 0-4°

Compound: C[C@H](CCC(=O)NCCC[N+](C)(C)CCCS(=O)(=O)[O-])[C@H]1CC[C@H]2[C@@H]3[C@H](O)C[C@@H]4C[C@H](O)CC[C@]4(C)[C@H]3C[C@H](O)[C@]12C [CHAPS, 3-[(3-cholamidopropyl)-dimethylammonio]-1-propane sulfonate]
- Percent NADase activity relative to iced control (pertussis toxin [1]): 106
- NADase activity (pertussis toxin [2]; additions to first incubation only, second incubation none, 18 hours at 0-4°): 186 pmol per μg per hour
- Peak indicating the alkylation of the S1 subunit [3]: increases
- Peaks indicating alkylation of the S2 and S3 subunits [3]: substantially decreases
- NADase activity in the presence of CHAPS alone (pertussis toxin [4]; 1% CHAPS, two trials): 153 units per microgram and 158 units per microgram

Compound: N[C@@H](CS)C(=O)O [cysteine]
- Effectiveness as sulfhydryl reductant to prepare the toxin for deactivation, in words (pertussis toxin [5]): effective
- activation constant (pertussis toxin [5]; in the presence of ATP and CHAPS): the same constant

Compound: CCN1C(=O)C=CC1=O [N-ethylmaleimide]
- NADase activity (pertussis toxin [2]; [8]): 16 pmol per μg per hour
- percent of activity with no addition to second incubation (pertussis toxin [2]; [8]): 15%
- NADase activity (pertussis toxin [2]; [9]): 10 pmol per μg per hour
- percent of activity with no addition to second incubation (pertussis toxin [2]; [9]): 10%
- NADase activity (%) of the activity of toxin treated the same way without alkylating agent (pertussis toxin [6]; first incubation: DTT 1 mM, CHAPS 2%, ATP 2 mM, Experiment #2, second incubation 15 min at 30° C, 25 μM NAD): 13%
- NADase activity (%) of the activity of toxin treated the same way without alkylating agent (pertussis toxin [6]; first incubation: DTT 1 mM, CHAPS 2%, pyrophosphate 2 mM, Experiment #2, second incubation 15 min at 30° C, 25 μM NAD): 46%
- NADase activity (%) of the activity of toxin treated the same way without alkylating agent (pertussis toxin [6]; first incubation: DTT 2 mM, CHAPS 2%, ATP 2 mM, Experiment #1, second incubation 30 min at 30° C, 125 μM NAD): 11%
- NADase activity (%) of the activity of toxin treated the same way without alkylating agent (pertussis toxin [6]; first incubation: DTT 2 mM, CHAPS 2%, pyrophosphate 2 mM, Experiment #1, second incubation 30 min at 30° C, 125 μM NAD): 60%
- NADase activity (%) of the activity of toxin treated the same way without alkylating agent (pertussis toxin [6]; first incubation: none, Experiment #1, second incubation 30 min at 30° C, 125 μM NAD): 90%
- NADase activity (%) of the activity of toxin treated the same way without alkylating agent (pertussis toxin [6]; first incubation: none, Experiment #2, second incubation 15 min at 30° C, 25 μM NAD): 106%

Compound: N[C@@H](CCC(=O)N[C@@H](CS)C(=O)NCC(=O)O)C(=O)O [glutathione]
- Effectiveness as sulfhydryl reductant to prepare the toxin for deactivation, in words (pertussis toxin [5]): effective
- EC50 (pertussis toxin [5]; in the presence of ATP and CHAPS, read-out: activation constant): 2 mM

Compound: NP-40
- Fractional Activity with CHAPS (pertussis toxin [4]): 0.97
- Fractional Activity without CHAPS (pertussis toxin [4]): 0.54

Compound: O[C@H](CS)[C@H](O)CS (racemic) [DTT, dithiothreitol]
- Effectiveness as sulfhydryl reductant to prepare the toxin for deactivation, in words (pertussis toxin [5]): effective
- NADase activity (pertussis toxin [5]; 10 mM DTT with 1 mM ATP): 147 U per microgram toxin and 195 U per microgram toxin
- EC50 (pertussis toxin [5]; read-out: concentration for half of the maximum effect (A0.5)): 0.2 mM
- EC100 (pertussis toxin [5]; read-out: concentration showing full activation): 1000 µM
- remaining activity at 1000 µM (pertussis toxin [1]; read-out: Percent NADase activity relative to iced control): 38%
- NADase activity (pertussis toxin [7]): 18 U per microgram toxin and 36 U per microgram toxin

Compound: Triton X-100
- Fractional Activity with CHAPS (pertussis toxin [4]): 1.05
- Fractional Activity without CHAPS (pertussis toxin [4]): 0.58
